Target: Protein 3a (Severe acute respiratory syndrome coronavirus 2, UniProt P0DTC3)
Assay: two-electrode voltage clamp, X. laevis oocytes
Conditions: read-out: % block at 10 μM

Sequence of Protein 3a (P0DTC3 whole entry): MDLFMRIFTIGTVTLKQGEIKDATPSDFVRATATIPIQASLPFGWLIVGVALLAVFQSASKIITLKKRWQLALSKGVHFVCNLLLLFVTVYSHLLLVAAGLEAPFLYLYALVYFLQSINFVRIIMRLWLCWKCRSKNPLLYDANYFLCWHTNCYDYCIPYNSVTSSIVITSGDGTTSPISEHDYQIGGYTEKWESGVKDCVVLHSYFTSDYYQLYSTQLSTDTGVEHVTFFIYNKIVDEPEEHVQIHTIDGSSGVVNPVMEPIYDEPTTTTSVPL

c1ccc2c(c1)Cc1ccccc1O2 [xanthene]
inhibition at 10 µM: 20%
